Values quoted from earlier work in patent US20160136093A9, “ENGINEERED AEROSOL PARTICLES, AND ASSOCIATED METHODS” (priority 2009, published 2016).

Test system: non-replicating TB
Settings: after one month, in vitro

In the case of Capreomycin, the “decrease in colony forming units (CFU)” value is listed as “one to two”.
